Source: patent publication US11485792B2, “Antibodies, uses thereof and conjugates thereof” (Polytherics Limited, priority 2016, dated 2022)
Read-outs that look alike come from different tables or passages of the source. Where a SMILES comes first, the peptide text is derived from it. [ ]: non-standard residue; d: D form. The star is where a group is joined. Dolaproine = CO[C@@H]([C@@H]1CCCN1)[C@@H](C)C(=O)O; Dil = CC[C@H](C)[C@H](NC)[C@@H](CC(=O)O)OC; X1 = C[C@@H](N*)[C@@H](O)c1ccccc1; NMeV = CN[C@H](C(=O)O)C(C)C

Tests used:
LNCaP cells = assay type: cell-based
Excerpt: (§1) The protocol describes cell seeding, drug treatment and determination of the cell viability in reference to untreated cells based on ATP synthesis, which is directly related to the number of cells present in the well.

PC-3 cells = assay: In vitro cell viability assay (CellTiter Glo), PC-3 (PSMA-negative control); assay type: cell-based; details: Example 16; PSMA-negative PC-3 (negative control), 96 h
Excerpt: Loss of tumour cell viability following treatment with cytotoxic drugs or ADCs in vitro can be measured by growing cell lines in the presence of increasing concentrations of drugs or ADCs and quantifying the loss of proliferation or metabolic activity using CellTiter Glo® Luminescence reagent (Promega Corp. Technical Bulletin TB288; Lewis Phillips G. D, Cancer Res 2008; 68:9280-9290). The protocol describes cell seeding, drug treatment and determination of the cell viability in reference to untreated cells based on ATP synthesis, which is directly related to the number of cells present in the well.
PSMA-positive LNCaP (clone FGC) and C4-2 cells, as well as PSMA-negative PC-3 cells were detached with TrypLE and resuspended in complete medium. Cells were counted using disposable Neubauer counting chambers and cell density adjusted to 10×10^4 cells/mL for LNCaP, 2×10^4 cells/mL for C4-2 and 1×10^4 cells/mL for PC-3 respectively. […]
The cell viability assay was carried out using the Cell-Titer Glo® Luminescence reagent, as described by the manufacturer's instructions, (Promega Corp. Technical Bulletin TB288; Lewis Phillips G. D, Cancer Res 2008; 68:9280-9290). Luminescence was recorded using a plate reader (e.g. Molecular Devices Spectramax M3 plate reader), and data subsequently analysed using a four parameter non-linear regression model. […]

C4-2 cells = assay: In vitro cell viability assay (CellTiter Glo), C4-2; assay type: cell-based, human; details: Example 16; PSMA-positive C4-2, 96 h
Excerpt: as §1

[1] = Heat stress test with SEC analysis of aggregation; assay type: physicochemical
Method: Antibody samples (0.5 mg/mL in PBS) were incubated at 75° C. for 30 min followed by incubation in an ice-bath for 5 min prior to being analysed for their extent of aggregation. Analysis of antibody solutions was carried out by Size Exclusion Chromatography (SEC) and by turbidity measurements.
SEC was performed using a TOSOH Bioscience TSK gel Super SW 3000 column. UV absorbance at 280 nm was monitored during an isocratic elution with a 0.2 M Potassium phosphate buffer, pH 6.8 (0.2 M potassium chloride and 15% isopropanol). The elution times and number of peaks indicate whether the sample contains aggregated, degraded or native antibody. The % area under the curve (Abs280) was used to determine the quantity of each species present in the SEC analysis.

[2] = post stress test: 0.5 mg/mL in PBS, 75° C. for 30 min, then ice-bath 5 min, SEC

| Compound | IC50 (LNCaP cells; Example 16, PSMA-positive LNCaP, 96 h) [nM] | IC50 (PC-3 cells) [nM] | IC50 (C4-2 cells) [nM] | IC50 (LNCaP cells; Example 14, LNCaP, 96 h incubation) [nM] | Ab in aggregated form (%) [1, 2] [%] | Ab in native conformation (%) [1, 2] [%] | stability in heat stress SEC analysis (in words) ([1]; propensity to aggregate upon heating and cooling) |
| --- | --- | --- | --- | --- | --- | --- | --- |
| COc1cc2cc(c1Cl)N(C)C(=O)C[C@H](OC(=O)[C@H](C)N(C)C(=O)CCCCCN)[C@]1(C)O[C@H]1[C@H](C)[C@@H]1C[C@@](O)(NC(=O)O1)[C@H](OC)/C=C/C=C(\C)C2 [AHX-DM1] | 341 | > 1000 | 57 |  |  |  |  |
| CC[C@H](C)[C@@H]([C@@H](CC(=O)N1CCC[C@H]1[C@H](OC)[C@@H](C)C(=O)N[C@H](C)[C@@H](O)c1ccccc1)OC)N(C)C(=O)[C@@H](NC(=O)[C@@H](NC)C(C)C)C(C)C [MMAE] (H-[NMeV]V[Dil][Dolaproine]-X1) |  | 8.2 | 0.28 | 0.81 |  |  |  |
| AB-22: de-immunised J591 anti-PSMA antibody, SEQ ID No 25 and 26; prior art comparator |  |  |  |  | 100 | 0 | less stable than AB-03 |
